Measurements taken from patent US20230263822A1, “MODULATION OF FACTOR 11 EXPRESSION” (Ionis Pharmaceuticals, Inc., priority 2008, published 2023).
Where two headings read alike, the source gives them in different places. e = 2'-O-(2-methoxyethyl) (MOE); d = 2'-deoxy (DNA)

Legend:
[1] = mouse, in vivo, sc, 50 mg/kg
[2] = mouse, in vivo, sc, 50 mg/kg; remark: listed apart in the source
[3] = mouse, in vivo, sc, 50 mg/kg; remark: listed apart in the source
[4] = rat, in vivo, sc, 50 mg/kg
[5] = rat, in vivo, sc, 50 mg/kg; remark: listed apart in the source
[6] = rat, in vivo, sc, 50 mg/kg; remark: listed apart in the source

Substance | ALT [1] [IU/L] | AST [1] [IU/L] | Bilirubin [1] [mg/dL] | Cholesterol [1] [mg/dL] | BUN [2] [mg/dL] | HCT [3] [%] | Lymphocyte [3] [cells/μL] | Neutrophil [3] [cells/μL] | Platelets [3] | RBC [3] | WBC [3] | hemoglobin [3] [g/dL] | monocytes [3] [cells/μL] | ALT [4] [IU/L] | AST [4] [IU/L] | Albumin [4] | Bilirubin [4] [mg/dL] | BUN [5] [mg/dL] | Creatinine [5] [mg/dL] | Total urine protein [5] [mg/dL] | further results
ISIS 412225: 5-10-5 MOE gapmer GCAGCGGACGGCATTGGTGC (sugars from the 5' end e5 d10 e5, backbone and methylation of C not given here) | 40 | 69 | 0.23 | 128 | 23 | 50 | 4969 | 1547 | 574 10^3/μL | 9 10^6/μL | 7 10^3/μL | 15 | 293 | 48 | 108 | 5 | 0.15 | 23 | 58 | 209 | Urine protein/creatinine ratio [5]: 4.0; HCT [6]: 42%; Lymphocyte [6]: 13204; Neutrophil [6]: 1499; Platelets [6]: 673; RBC [6]: 7.4 10^6/μL; WBC [6]: 15 10^3/μL; hemoglobin [6]: 13.4 g/dL
ISIS 416851: MOE gapmer, nucleobases 1275 to 1318 of SEQ ID NO: 1 (Table 8) (antisense GTGCACAGTTTCTGGCAGGC; MOE gapmer, wing and gap sizes not given here) | 47 | 76 | 0.19 | 106 | 21 | 47 | 4162 | 1619 | 984 10^3/μL | 9 10^6/μL | 6 10^3/μL | 14 | 194 | 64 | 91 | 4 | 0.14 | 24 | 70 | 286 | Urine protein/creatinine ratio [5]: 4.0; HCT [6]: 42%; Lymphocyte [6]: 9911; Neutrophil [6]: 1001; Platelets [6]: 734; RBC [6]: 7.4 10^6/μL; WBC [6]: 11 10^3/μL; hemoglobin [6]: 13.7 g/dL
ISIS 413481: 5-10-5 MOE gapmer GGTGCACAGTTTCTGGCAGG (sugars from the 5' end e5 d10 e5, backbone and methylation of C not given here) | 85 | 143 | 0.18 | 153 | 23 | 45 | 4329 | 1904 | 841 10^3/μL | 9 10^6/μL | 7 10^3/μL | 13 | 204 | 54 | 80 | 4 | 0.22 | 26 | 45 | 148 | Urine protein/creatinine ratio [5]: 3.6; HCT [6]: 43%; Lymphocyte [6]: 12707; Neutrophil [6]: 1046; Platelets [6]: 552; RBC [6]: 7.5 10^6/μL; WBC [6]: 14 10^3/μL; hemoglobin [6]: 14.2 g/dL
ISIS 416863: MOE gapmer, nucleobases 1275 to 1318 of SEQ ID NO: 1 (Table 8) (antisense CAGCGGACGGCATTGGTGCA; MOE gapmer, wing and gap sizes not given here) | 41 | 101 | 0.24 | 118 | 22 | 48 | 5617 | 1330 | 1131 10^3/μL | 9 10^6/μL | 7 10^3/μL | 14 | 226 | 47 | 78 | 4 | 0.13 | 29 | 73 | 269 | Urine protein/creatinine ratio [5]: 3.8; HCT [6]: 45%; Lymphocyte [6]: 14669; Neutrophil [6]: 1720; Platelets [6]: 674; RBC [6]: 7.6 10^6/μL; WBC [6]: 17 10^3/μL; hemoglobin [6]: 14.1 g/dL
ISIS 416856: MOE gapmer, nucleobases 1275 to 1318 of SEQ ID NO: 1 (Table 8) (antisense GGCATTGGTGCACAGTTTCT; MOE gapmer, wing and gap sizes not given here) | 130 | 129 | 0.23 | 109 | 21 | 47 | 3622 | 1292 | 753 10^3/μL | 9 10^6/μL | 5 10^3/μL | 14 | 151 | 123 | 222 | 4 | 0.13 | 23 | 48 | 128 | Urine protein/creatinine ratio [5]: 2.7; HCT [6]: 43%; Lymphocyte [6]: 14328; Neutrophil [6]: 3280; Platelets [6]: 740; RBC [6]: 7.7 10^6/μL; WBC [6]: 19 10^3/μL; hemoglobin [6]: 14.1 g/dL
ISIS 412223: 5-10-5 MOE gapmer ACAGTTTCTGGCAGGCCTCG (sugars from the 5' end e5 d10 e5, backbone and methylation of C not given here) | 60 | 125 | 0.20 | 117 | 28 | 48 | 4599 | 1756 | 862 10^3/μL | 9 10^6/μL | 7 10^3/μL | 15 | 200 | 85 | 180 | 5 | 0.14 | 24 | 46 | 224 | Urine protein/creatinine ratio [5]: 4.6; HCT [6]: 41%; Lymphocyte [6]: 16990; Neutrophil [6]: 1826; Platelets [6]: 567; RBC [6]: 7.2 10^6/μL; WBC [6]: 20 10^3/μL; hemoglobin [6]: 13.1 g/dL
ISIS 416866: MOE gapmer, nucleobases 1275 to 1318 of SEQ ID NO: 1 (Table 8) (antisense CTGGCAGCGGACGGCATTGG; MOE gapmer, wing and gap sizes not given here) | 36 | 120 | 0.29 | 113 | 22 | 51 | 4621 | 1201 | 1045 10^3/μL | 9 10^6/μL | 6 10^3/μL | 15 | 211 | 41 | 78 | 4 | 0.16 | 22 | 85 | 486 | Urine protein/creatinine ratio [5]: 6.2; HCT [6]: 44%; Lymphocyte [6]: 16834; Neutrophil [6]: 1916; Platelets [6]: 900; RBC [6]: 7.8 10^6/μL; WBC [6]: 20 10^3/μL; hemoglobin [6]: 14.0 g/dL
ISIS 412224: 5-10-5 MOE gapmer GCATTGGTGCACAGTTTCTG (sugars from the 5' end e5 d10 e5, backbone and methylation of C not given here) | 214 | 183 | 0.19 | 114 | 29 | 50 | 6284 | 2107 | 647 10^3/μL | 10 10^6/μL | 9 10^3/μL | 15 | 195 | 84 | 132 | 4 | 0.12 | 24 | 44 | 171 | Urine protein/creatinine ratio [5]: 3.8; HCT [6]: 42%; Lymphocyte [6]: 16807; Neutrophil [6]: 1865; Platelets [6]: 685; RBC [6]: 7.4 10^6/μL; WBC [6]: 20 10^3/μL; hemoglobin [6]: 13.4 g/dL
